{
  "source": "patent EP0942721B1",
  "about": "“LIQUID COMPOSITION COMPRISING AN HIV PROTEASE INHIBITOR AND A C12-C18 FATTY ACID” (Abbott Laboratories, priority 1996, dated 1998)",
  "experiment": "Oral bioavailability studies in dogs",
  "assay_type": "in vivo, beagle dogs",
  "conditions": "dog, administered as an unformulated solid in a capsule dosage form, 5 mg/kg oral dose in dogs",
  "method": "Dogs (beagle dogs, mixed sexes, weighing 7-14 kg) were fasted overnight prior to dosing, but were permitted water ad libitum. Each dog received a 100 µg/kg subcutaneous dose of histamine approximately 30 minutes prior to dosing. Each dog received a single solid dosage form corresponding to a 5 mg/kg dose of the drug. The dose was followed by approximately 10 milliliters of water. Blood samples were obtained from each animal prior to dosing and 0.25, 0.5, 1.0,1.5, 2, 3, 4, 6, 8, 10 and 12 hours after drug administration. The plasma was separated from the red cells by centrifugation and frozen (-30°C) until analysis. Concentrations of parent drug were determined by reverse phase HPLC with low wavelength UV detection following liquid-liquid extraction of the plasma samples. The parent drug area under the curve was calculated by the trapezoidal method over the time course of the study. The absolute bioavailability of each test composition was calculated by comparing the area under the curve after oral dosing to that obtained from a single intravenous dose. Each capsule or capsule composition was evaluated in a group containing at least six dogs; the values reported are averages for each group of dogs.",
  "data": [
    {"compound": "CC(C)c1nc(CN(C)C(=O)N[C@H](C(=O)N[C@@H](Cc2ccccc2)C[C@H](O)[C@H](Cc2ccccc2)NC(=O)OCc2cncs2)C(C)C)cs1", "note": "[bis-tosylate of compound III]", "values": [
      {"measurement": "bioavailability at 12 h", "setting": "in vivo", "result": "< 2", "unit": "%"}
    ]},
    {"compound": "CC(C)c1nc(CN(C)C(=O)N[C@H](C(=O)N[C@@H](Cc2ccccc2)C[C@H](O)[C@H](Cc2ccccc2)NC(=O)OCc2cncs2)C(C)C)cs1", "note": "[compound III, (2S,3S,5S)-5-(N-(N-((N-Methyl-N-((2-isopropyl-4-thiazolyl)methyl)-amino)carbonyl)valinyl)amino)-2-(N-((5-thiazolyl)methoxycarbonyl)amino)-1,6-diphenyl-3-hydroxyhexane]", "values": [
      {"measurement": "bioavailability", "setting": "both sexes, beagle, plasma", "result": "< 2", "unit": "%"}
    ]}
  ]
}
